According to PMC9312876, “Therapeutic Potential of a Novel Vitamin D3 Oxime Analogue, VD1-6, with CYP24A1 Enzyme Inhibitory Activity and Negligible Vitamin D Receptor Binding” (Biomolecules, 2022):

Assays:
vitamin D receptor (VDR) [1] = target: T1, vitamin D receptor (VDR) (Homo sapiens, UniProt P11473); assay: fluorescence polarization competition with Fluormone VDR Red tracer (PolarScreen); assay type: binding
T1 construct: full-length
T1 sequence (P11473 1-427): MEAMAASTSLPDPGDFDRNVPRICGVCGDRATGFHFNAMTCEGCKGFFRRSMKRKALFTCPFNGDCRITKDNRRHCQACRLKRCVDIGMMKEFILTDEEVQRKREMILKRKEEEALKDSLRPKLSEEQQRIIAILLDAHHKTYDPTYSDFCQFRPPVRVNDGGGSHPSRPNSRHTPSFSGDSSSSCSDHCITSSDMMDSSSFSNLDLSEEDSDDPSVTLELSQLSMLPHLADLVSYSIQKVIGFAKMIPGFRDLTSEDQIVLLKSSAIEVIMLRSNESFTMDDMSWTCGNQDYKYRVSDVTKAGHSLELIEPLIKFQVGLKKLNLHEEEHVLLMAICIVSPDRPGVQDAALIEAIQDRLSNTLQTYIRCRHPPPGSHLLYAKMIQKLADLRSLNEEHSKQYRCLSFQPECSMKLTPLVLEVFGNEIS

vitamin D receptor (VDR) [2] = target: T1, vitamin D receptor (VDR); assay: fluorescence polarization competition with Fluormone VDR Red tracer (PolarScreen); binding only evident above […]

SMILES | IC50 (vitamin D receptor (VDR) [1]) | IC50 (vitamin D receptor (VDR) [2])
C=C1CC[C@H](O)C/C1=C/C=C1\CCC[C@]2(C)[C@@H]([C@H](C)CCCC(C)(C)O)CC[C@@H]12 [25(OH)D3] | 56.2 nM | 
C=C1/C(=C\C=C2/CCC[C@]3(C)[C@@H]([C@H](C)CCC(=NOC)C(C)(C)C)CC[C@@H]23)C[C@@H](O)C[C@@H]1O [VD1-6] |  | 438 nM
